# Reference: paper PMC5761851, “Application of a phenotypic drug discovery strategy to identify biological and chemical starting points for inhibition of TSLP production in lung epithelial cells” (PLoS ONE, 2018)
# “And” between values parts separate entries of the source, which are not always exact repeats. Equal values may be shown once. Read-outs that look alike come from different tables or passages of the source.
# Legend:
# [1] = test system: 104 binding assays and 41 cell based and enzyme assays; assay: BioPrint general selectivity panel; settings: 1 μM
# Description: (§1) General selectivity profiling was performed at Eurofins Pharma Discovery Services using the BioPrint® panel and reference database. The panel included 104 binding assays (non-peptide, peptide and nuclear receptors, ion channels and amine transporters) and 41 cell based and enzyme assays (including 10 kinases, 9 proteases and 5 phosphodiesterases) (S4 Table). More than 70% were human targets. Compound 4 was tested at a concentration of 1 μM in duplicate (10 μM for P-gp and CYP enzymes). The resulting bioactivity fingerprint was compared with a database of >2,500 BioPrint marketed drugs and reference compounds. IC50 values for selected activities were further characterized at 8 concentrations in duplicate.
# [2] = target: PDE6 (Bos taurus, UniProt P11541+P23439); assay: BioPrint panel: PDE6; type: biochemical
# Chain of PDE6 (P11541 2-856): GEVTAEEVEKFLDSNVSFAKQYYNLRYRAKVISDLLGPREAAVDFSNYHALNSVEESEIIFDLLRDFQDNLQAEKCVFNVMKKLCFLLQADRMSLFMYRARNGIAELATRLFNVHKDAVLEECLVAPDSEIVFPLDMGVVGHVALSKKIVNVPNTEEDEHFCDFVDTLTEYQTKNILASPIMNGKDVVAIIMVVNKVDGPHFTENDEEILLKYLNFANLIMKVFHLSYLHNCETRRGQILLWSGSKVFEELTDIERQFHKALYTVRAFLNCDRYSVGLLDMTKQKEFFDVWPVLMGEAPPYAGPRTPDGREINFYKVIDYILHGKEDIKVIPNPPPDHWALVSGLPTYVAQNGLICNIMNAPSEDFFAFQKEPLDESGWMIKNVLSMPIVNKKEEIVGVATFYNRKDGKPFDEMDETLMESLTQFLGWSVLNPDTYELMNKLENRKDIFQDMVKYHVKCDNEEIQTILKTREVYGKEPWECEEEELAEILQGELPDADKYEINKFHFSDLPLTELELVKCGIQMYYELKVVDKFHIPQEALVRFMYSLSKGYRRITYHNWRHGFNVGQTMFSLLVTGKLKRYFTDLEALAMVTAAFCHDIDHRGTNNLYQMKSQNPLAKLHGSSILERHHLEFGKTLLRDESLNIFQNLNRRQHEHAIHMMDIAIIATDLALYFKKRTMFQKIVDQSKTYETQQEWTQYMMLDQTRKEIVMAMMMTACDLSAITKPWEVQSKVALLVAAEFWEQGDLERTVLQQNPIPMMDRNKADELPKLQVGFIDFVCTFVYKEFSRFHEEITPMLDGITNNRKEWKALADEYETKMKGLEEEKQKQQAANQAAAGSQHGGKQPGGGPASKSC
# Chain of PDE6 (P23439 2-850): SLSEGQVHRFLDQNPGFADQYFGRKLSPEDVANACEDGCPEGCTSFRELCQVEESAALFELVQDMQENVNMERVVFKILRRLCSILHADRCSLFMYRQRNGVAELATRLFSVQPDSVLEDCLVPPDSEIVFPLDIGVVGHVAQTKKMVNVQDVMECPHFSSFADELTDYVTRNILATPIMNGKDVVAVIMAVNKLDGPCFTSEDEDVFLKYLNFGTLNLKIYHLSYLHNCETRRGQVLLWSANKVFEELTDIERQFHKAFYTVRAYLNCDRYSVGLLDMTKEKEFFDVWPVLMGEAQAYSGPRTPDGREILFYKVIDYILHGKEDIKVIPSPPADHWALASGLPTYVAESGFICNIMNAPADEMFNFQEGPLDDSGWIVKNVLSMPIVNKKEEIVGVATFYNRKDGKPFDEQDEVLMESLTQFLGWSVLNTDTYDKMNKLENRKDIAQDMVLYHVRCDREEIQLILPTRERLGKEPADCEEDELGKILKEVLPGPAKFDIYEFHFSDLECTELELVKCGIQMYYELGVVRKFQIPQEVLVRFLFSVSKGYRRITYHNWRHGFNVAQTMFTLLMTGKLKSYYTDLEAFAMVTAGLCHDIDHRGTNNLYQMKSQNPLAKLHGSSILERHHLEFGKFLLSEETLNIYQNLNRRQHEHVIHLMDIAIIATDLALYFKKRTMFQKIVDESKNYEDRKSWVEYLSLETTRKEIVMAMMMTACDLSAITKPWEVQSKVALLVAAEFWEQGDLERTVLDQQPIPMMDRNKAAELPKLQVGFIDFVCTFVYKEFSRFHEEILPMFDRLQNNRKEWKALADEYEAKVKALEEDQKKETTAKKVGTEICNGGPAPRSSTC
# Chain of PDE6 (P04972 whole entry partner): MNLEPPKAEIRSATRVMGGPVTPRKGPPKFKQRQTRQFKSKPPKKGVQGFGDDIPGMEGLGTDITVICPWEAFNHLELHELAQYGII
# Description: as §1
# [3] = target: T1, DNA-PK (Homo sapiens, UniProt P78527); assay: DNA-PK activity (SelectScreen); settings: biochemical dose response, duplicate; read-out: Inhibition of indicated activity (IC50, μM): DNA-PK
# T1 construct: Thermo Fisher Scientific SelectScreen (contract assay service)
# Description: Kinase selectivity was evaluated at Eurofins Pharma Discovery Services using a selection of 125 representative kinases tested at a concentration of 10 μM in duplicate (S3 Table). IC50 values for selected activities were further characterized at 9 duplicate concentrations. DNA-PK activity was determined at the SelectScreen® Biochemical kinase Profiling Service of Thermo Fisher Scientific.
# [4] = target: T2, A1 (Homo sapiens, UniProt P30542); assay: BioPrint panel: A1 (h) (agonist); type: binding; settings: 1 micromolar, read-out: percentage of inhibition of activity
# T2 construct: purchased Eurofins Pharma Discovery Services (KinaseProfiler; Cerep BioPrint panel)
# Excerpt: (§2) Supplement pone.0189247.s004.xlsx, sheet "Bioprint Selectivity Panel" | column: %
# [5] = target: T3, A2B (Homo sapiens, UniProt P29275); assay: BioPrint panel: A2B (h) (antagonist); type: binding; settings: 1 micromolar, read-out: percentage of inhibition of activity
# T3 construct: purchased Eurofins Pharma Discovery Services (KinaseProfiler; Cerep BioPrint panel)
# Excerpt: as §2
# [6] = target: T4, A3 (Homo sapiens, UniProt P0DMS8); assay: BioPrint panel: A3 (h) (agonist); type: binding; settings: 1 micromolar, read-out: percentage of inhibition of activity
# T4 construct: purchased Eurofins Pharma Discovery Services (KinaseProfiler; Cerep BioPrint panel)
# Excerpt: as §2
# [7] = target: T5, alpha 2A (Homo sapiens, UniProt P08913); assay: BioPrint panel: alpha 2A (h) (antagonist); type: binding; settings: 1 micromolar, read-out: percentage of inhibition of activity
# T5 construct: purchased Eurofins Pharma Discovery Services (KinaseProfiler; Cerep BioPrint panel)
# Excerpt: as §2
# [8] = target: T6, alpha 2C (Homo sapiens, UniProt P18825); assay: BioPrint panel: alpha 2C (h) (antagonist); type: binding; settings: 1 micromolar, read-out: percentage of inhibition of activity
# T6 construct: purchased Eurofins Pharma Discovery Services (KinaseProfiler; Cerep BioPrint panel)
# Excerpt: as §2
# [9] = target: T7, beta 1 (Homo sapiens, UniProt P08588); assay: BioPrint panel: beta 1 (h) (agonist); type: binding; settings: 1 micromolar, read-out: percentage of inhibition of activity
# T7 construct: purchased Eurofins Pharma Discovery Services (KinaseProfiler; Cerep BioPrint panel)
# Excerpt: as §2
# [10] = target: T8, BB3 (Homo sapiens, UniProt P32247); assay: BioPrint panel: BB3 (h) (agonist); type: binding; settings: 1 micromolar, read-out: percentage of inhibition of activity
# T8 construct: purchased Eurofins Pharma Discovery Services (KinaseProfiler; Cerep BioPrint panel)
# Excerpt: as §2
# [11] = target: T9, D2S (Homo sapiens, UniProt P14416); assay: BioPrint panel: D2S (h) (agonist); type: binding; settings: 1 micromolar, read-out: percentage of inhibition of activity
# T9 construct: purchased Eurofins Pharma Discovery Services (KinaseProfiler; Cerep BioPrint panel)
# Excerpt: as §2
# [12] = target: T10, H2 (Homo sapiens, UniProt P25021); assay: BioPrint panel: H2 (h) (antagonist); type: binding; settings: 1 micromolar, read-out: percentage of inhibition of activity
# T10 construct: purchased Eurofins Pharma Discovery Services (KinaseProfiler; Cerep BioPrint panel)
# T10 sequence (P25021 whole entry): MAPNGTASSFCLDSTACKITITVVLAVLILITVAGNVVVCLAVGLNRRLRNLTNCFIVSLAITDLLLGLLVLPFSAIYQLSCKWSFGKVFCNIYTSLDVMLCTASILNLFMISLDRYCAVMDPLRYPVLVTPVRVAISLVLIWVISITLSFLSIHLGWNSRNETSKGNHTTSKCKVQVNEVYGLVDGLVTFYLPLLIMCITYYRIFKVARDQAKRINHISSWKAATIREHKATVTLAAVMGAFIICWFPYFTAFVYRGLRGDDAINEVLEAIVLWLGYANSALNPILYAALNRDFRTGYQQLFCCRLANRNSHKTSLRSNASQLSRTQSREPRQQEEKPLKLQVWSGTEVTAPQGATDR
# Excerpt: as §2
# [13] = target: T11, MC1 (Mus musculus, UniProt Q01727); assay: BioPrint panel: MC1 (agonist); type: binding; settings: 1 micromolar, read-out: percentage of inhibition of activity
# T11 construct: purchased Eurofins Pharma Discovery Services (KinaseProfiler; Cerep BioPrint panel)
# Excerpt: as §2
# [14] = target: T12, M1 (Homo sapiens, UniProt P11229); assay: BioPrint panel: M1 (h) (antagonist); type: binding; settings: 1 micromolar, read-out: percentage of inhibition of activity
# T12 construct: purchased Eurofins Pharma Discovery Services (KinaseProfiler; Cerep BioPrint panel)
# Excerpt: as §2
# [15] = target: T13, M2 (Homo sapiens, UniProt P08172); assay: BioPrint panel: M2 (h) (antagonist); type: binding; settings: 1 micromolar, read-out: percentage of inhibition of activity
# T13 construct: purchased Eurofins Pharma Discovery Services (KinaseProfiler; Cerep BioPrint panel)
# Excerpt: as §2
# [16] = target: T14, N neuronal a4 b2 (Homo sapiens, UniProt P17787+P43681); assay: BioPrint panel: N neuronal a4 b2 (h) (agonist); type: binding; settings: 1 micromolar, read-out: percentage of inhibition of activity
# T14 construct: purchased Eurofins Pharma Discovery Services (KinaseProfiler; Cerep BioPrint panel)
# Excerpt: as §2
# [17] = test system: N muscle-type; assay: BioPrint panel: N muscle-type (h) (antagonist); type: binding, human; settings: 1 micromolar
# Excerpt: as §2
# [18] = target: T15, delta 2 (DOP) (Homo sapiens, UniProt P41143); assay: BioPrint panel: delta 2 (DOP) (h) (agonist); type: binding; settings: 1 micromolar, read-out: percentage of inhibition of activity
# T15 construct: purchased Eurofins Pharma Discovery Services (KinaseProfiler; Cerep BioPrint panel)
# Excerpt: as §2
# [19] = target: T16, kappa (KOP) (Rattus norvegicus, UniProt P34975); assay: BioPrint panel: kappa (KOP) (agonist); type: binding; settings: 1 micromolar, read-out: percentage of inhibition of activity
# T16 construct: purchased Eurofins Pharma Discovery Services (KinaseProfiler; Cerep BioPrint panel)
# Excerpt: as §2
# [20] = target: T17, LXRbeta (Homo sapiens, UniProt P55055); assay: BioPrint panel: LXRbeta (h) (agonist); type: binding; settings: 1 micromolar, read-out: percentage of inhibition of activity
# T17 construct: purchased Eurofins Pharma Discovery Services (KinaseProfiler; Cerep BioPrint panel)
# Excerpt: as §2
# [21] = target: T18, 5-HT2B (Homo sapiens, UniProt P41595); assay: BioPrint panel: 5-HT2B (h) (agonist); type: binding; settings: 1 micromolar, read-out: percentage of inhibition of activity
# T18 construct: purchased Eurofins Pharma Discovery Services (KinaseProfiler; Cerep BioPrint panel)
# Excerpt: as §2
# [22] = target: T19, V1a (Homo sapiens, UniProt P37288); assay: BioPrint panel: V1a (h) (agonist); type: binding; settings: 1 micromolar, read-out: percentage of inhibition of activity
# T19 construct: purchased Eurofins Pharma Discovery Services (KinaseProfiler; Cerep BioPrint panel)
# Excerpt: as §2
# [23] = target: T20, V2 (Homo sapiens, UniProt P30518); assay: BioPrint panel: V2 (h) (agonist); type: binding; settings: 1 micromolar, read-out: percentage of inhibition of activity
# T20 construct: purchased Eurofins Pharma Discovery Services (KinaseProfiler; Cerep BioPrint panel)
# Excerpt: as §2
# [24] = target: T21, Ca2+ channel (N) (Rattus norvegicus, UniProt Q02294); assay: BioPrint panel: Ca2+ channel (N) (antagonist); type: binding; settings: 1 micromolar, read-out: percentage of inhibition of activity
# T21 construct: purchased Eurofins Pharma Discovery Services (KinaseProfiler; Cerep BioPrint panel)
# T21 sequence (Q02294 whole entry): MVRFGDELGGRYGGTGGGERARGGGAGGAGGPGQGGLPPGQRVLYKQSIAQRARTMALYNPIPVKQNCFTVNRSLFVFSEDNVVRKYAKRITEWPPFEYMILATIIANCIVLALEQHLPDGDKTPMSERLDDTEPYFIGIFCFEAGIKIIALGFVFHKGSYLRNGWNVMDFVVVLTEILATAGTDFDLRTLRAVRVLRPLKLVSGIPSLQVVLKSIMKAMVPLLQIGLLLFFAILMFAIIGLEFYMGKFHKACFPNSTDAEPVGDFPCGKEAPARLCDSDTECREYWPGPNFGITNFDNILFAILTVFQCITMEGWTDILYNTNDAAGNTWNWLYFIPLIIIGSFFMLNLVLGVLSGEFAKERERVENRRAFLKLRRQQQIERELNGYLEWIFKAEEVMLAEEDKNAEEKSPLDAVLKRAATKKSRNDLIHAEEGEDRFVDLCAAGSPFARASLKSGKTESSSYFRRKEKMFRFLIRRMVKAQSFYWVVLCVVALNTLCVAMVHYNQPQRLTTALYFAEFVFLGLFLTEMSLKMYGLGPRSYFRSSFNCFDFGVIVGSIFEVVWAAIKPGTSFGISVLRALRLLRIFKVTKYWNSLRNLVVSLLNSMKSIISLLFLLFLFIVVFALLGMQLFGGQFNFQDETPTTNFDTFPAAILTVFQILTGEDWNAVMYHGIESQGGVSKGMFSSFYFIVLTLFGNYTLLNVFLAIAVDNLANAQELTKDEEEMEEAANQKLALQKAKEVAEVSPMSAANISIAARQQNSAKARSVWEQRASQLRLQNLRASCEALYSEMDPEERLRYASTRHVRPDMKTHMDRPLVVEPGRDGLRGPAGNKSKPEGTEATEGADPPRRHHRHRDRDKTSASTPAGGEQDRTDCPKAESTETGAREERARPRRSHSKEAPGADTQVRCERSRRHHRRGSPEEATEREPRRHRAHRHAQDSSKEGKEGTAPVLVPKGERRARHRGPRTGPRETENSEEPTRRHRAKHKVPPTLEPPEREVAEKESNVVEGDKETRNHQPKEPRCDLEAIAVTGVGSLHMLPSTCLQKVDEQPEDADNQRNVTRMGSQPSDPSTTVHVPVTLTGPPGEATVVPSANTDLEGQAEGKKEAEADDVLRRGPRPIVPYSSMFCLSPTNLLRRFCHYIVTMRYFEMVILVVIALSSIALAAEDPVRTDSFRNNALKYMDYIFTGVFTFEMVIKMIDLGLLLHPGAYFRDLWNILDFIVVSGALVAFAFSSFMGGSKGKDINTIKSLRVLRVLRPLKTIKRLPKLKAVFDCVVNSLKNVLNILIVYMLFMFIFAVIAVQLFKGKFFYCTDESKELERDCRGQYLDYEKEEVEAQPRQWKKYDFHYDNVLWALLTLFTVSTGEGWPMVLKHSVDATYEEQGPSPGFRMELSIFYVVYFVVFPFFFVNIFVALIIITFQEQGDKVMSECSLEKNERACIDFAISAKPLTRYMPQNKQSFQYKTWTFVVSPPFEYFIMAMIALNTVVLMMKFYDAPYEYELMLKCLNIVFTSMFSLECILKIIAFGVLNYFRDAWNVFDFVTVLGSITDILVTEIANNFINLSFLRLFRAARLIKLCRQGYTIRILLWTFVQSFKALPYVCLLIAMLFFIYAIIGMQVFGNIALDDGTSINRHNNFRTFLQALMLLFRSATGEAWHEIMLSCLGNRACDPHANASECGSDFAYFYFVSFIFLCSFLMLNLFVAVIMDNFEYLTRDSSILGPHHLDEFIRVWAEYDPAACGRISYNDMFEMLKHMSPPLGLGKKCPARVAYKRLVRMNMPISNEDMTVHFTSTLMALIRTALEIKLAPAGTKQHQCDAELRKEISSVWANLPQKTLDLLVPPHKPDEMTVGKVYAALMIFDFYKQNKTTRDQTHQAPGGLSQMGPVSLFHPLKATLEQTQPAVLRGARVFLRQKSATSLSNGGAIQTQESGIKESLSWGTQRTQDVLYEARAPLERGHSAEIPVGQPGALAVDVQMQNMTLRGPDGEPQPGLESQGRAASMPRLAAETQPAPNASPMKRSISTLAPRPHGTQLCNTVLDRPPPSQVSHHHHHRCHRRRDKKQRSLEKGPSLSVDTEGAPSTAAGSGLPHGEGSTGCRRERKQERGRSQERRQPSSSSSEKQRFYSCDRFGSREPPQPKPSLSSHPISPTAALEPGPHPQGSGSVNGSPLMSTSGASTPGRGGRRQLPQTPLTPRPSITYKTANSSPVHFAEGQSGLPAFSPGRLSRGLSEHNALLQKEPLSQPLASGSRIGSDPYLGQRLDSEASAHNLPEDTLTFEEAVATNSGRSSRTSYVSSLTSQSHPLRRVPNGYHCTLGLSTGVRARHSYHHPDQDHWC
# Excerpt: as §2
# [25] = target: T22, COX2 (Homo sapiens, UniProt P35354); assay: BioPrint panel: COX2 (h); type: biochemical; settings: 1 micromolar, read-out: percentage of inhibition of activity
# T22 construct: purchased Eurofins Pharma Discovery Services (KinaseProfiler; Cerep BioPrint panel)
# Excerpt: as §2
# [26] = target: T23, PDE3B (Homo sapiens, UniProt Q13370); assay: BioPrint panel: PDE3B (h); type: biochemical; settings: 1 micromolar, read-out: percentage of inhibition of activity
# T23 construct: purchased Eurofins Pharma Discovery Services (KinaseProfiler; Cerep BioPrint panel)
# Excerpt: as §2
# [27] = target: T24, neutral endopeptidase (Homo sapiens, UniProt P08473); assay: BioPrint panel: neutral endopeptidase (h); type: biochemical; settings: 1 micromolar, read-out: percentage of inhibition of activity
# T24 construct: purchased Eurofins Pharma Discovery Services (KinaseProfiler; Cerep BioPrint panel)
# Excerpt: as §2
# [28] = target: T25, MMP-2 (Homo sapiens, UniProt P08253); assay: BioPrint panel: MMP-2 (h); type: biochemical; settings: 1 micromolar, read-out: percentage of inhibition of activity
# T25 construct: purchased Eurofins Pharma Discovery Services (KinaseProfiler; Cerep BioPrint panel)
# Excerpt: as §2
# [29] = target: T26, MMP-9 (Homo sapiens, UniProt P14780); assay: BioPrint panel: MMP-9 (h); type: biochemical; settings: 1 micromolar, read-out: percentage of inhibition of activity
# T26 construct: purchased Eurofins Pharma Discovery Services (KinaseProfiler; Cerep BioPrint panel)
# Excerpt: as §2
# [30] = target: T27, Abl (Homo sapiens, UniProt P00519); assay: BioPrint panel: Abl kinase (h); type: biochemical; settings: 1 micromolar, read-out: percentage of inhibition of activity
# T27 construct: purchased Eurofins Pharma Discovery Services (KinaseProfiler; Cerep BioPrint panel)
# Excerpt: as §2
# [31] = target: T28, CDK2 (cycA) (Homo sapiens, UniProt P24941); assay: BioPrint panel: CDK2 (h) (cycA); type: biochemical; settings: 1 micromolar, read-out: percentage of inhibition of activity
# T28 construct: purchased Eurofins Pharma Discovery Services (KinaseProfiler; Cerep BioPrint panel)
# Excerpt: as §2
# [32] = target: T29, IRK (InsR) (Homo sapiens, UniProt P06213); assay: BioPrint panel: IRK (h) (InsR); type: biochemical; settings: 1 micromolar, read-out: percentage of inhibition of activity
# T29 construct: purchased Eurofins Pharma Discovery Services (KinaseProfiler; Cerep BioPrint panel)
# Excerpt: as §2
# [33] = target: T30, Lyn A kinase (Homo sapiens, UniProt P07948); assay: BioPrint panel: Lyn A kinase (h); type: biochemical; settings: 1 micromolar, read-out: percentage of inhibition of activity
# T30 construct: purchased Eurofins Pharma Discovery Services (KinaseProfiler; Cerep BioPrint panel)
# Excerpt: as §2
# [34] = target: T31, p38alpha kinase (Homo sapiens, UniProt Q16539); assay: BioPrint panel: p38alpha kinase (h); type: biochemical; settings: 1 micromolar, read-out: percentage of inhibition of activity
# T31 construct: purchased Eurofins Pharma Discovery Services (KinaseProfiler; Cerep BioPrint panel)
# T31 sequence (Q16539 whole entry): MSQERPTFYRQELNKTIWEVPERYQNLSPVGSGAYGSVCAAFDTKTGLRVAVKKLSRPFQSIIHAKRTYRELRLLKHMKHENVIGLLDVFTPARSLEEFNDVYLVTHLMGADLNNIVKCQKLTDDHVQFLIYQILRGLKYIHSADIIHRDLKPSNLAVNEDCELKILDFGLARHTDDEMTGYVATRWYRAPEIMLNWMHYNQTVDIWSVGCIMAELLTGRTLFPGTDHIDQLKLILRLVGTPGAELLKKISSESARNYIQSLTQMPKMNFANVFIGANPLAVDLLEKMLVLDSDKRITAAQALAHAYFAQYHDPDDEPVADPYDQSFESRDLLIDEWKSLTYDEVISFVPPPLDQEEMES
# Excerpt: as §2
# [35] = target: p38α (Homo sapiens, UniProt Q16539); assay: enzymatic p38 activity; type: biochemical
# Chain of p38α (Q16539 whole entry): as above
smiles,measurement,setting,value
Cn1cc(-c2cccc(-c3nc(C(=O)NC4C5CC6CC4CC(O)(C6)C5)c(N)nc3N)c2)cn1 (stereo not shown) [compound 4],Inhibition of 129 additional activities,[1],less than 50%
same,inhibition at 1 µM,"[2]; 1 μM, read-out: inhibition of PDE6",55%
same,inhibition at 1 µM,"[2]; 1 micromolar, PDE6 (non-selective), read-out: percentage of inhibition of activity",55.6%
same,IC50,[3],0.348 µM
same,inhibition at 1 µM,[4],-11.2%
same,inhibition at 1 µM,[5],-3%
same,inhibition at 1 µM,[6],3.5%
same,inhibition at 1 µM,[7],6.2%
same,inhibition at 1 µM,[8],-14.1%
same,inhibition at 1 µM,[9],-1.8%
same,inhibition at 1 µM,[10],-3.6%
same,inhibition at 1 µM,[11],-1.5%
same,inhibition at 1 µM,[12],0%
same,inhibition at 1 µM,[13],-2.3%
same,inhibition at 1 µM,[14],-16.7%
same,inhibition at 1 µM,[15],19.5%
same,inhibition at 1 µM,[16],-13.9%
same,percentage of inhibition of activity,[17],-17.1%
same,inhibition at 1 µM,[18],-0.2%
same,inhibition at 1 µM,[19],11.8%
same,inhibition at 1 µM,[20],4.1%
same,inhibition at 1 µM,[21],-7.9%
same,inhibition at 1 µM,[22],-9.3%
same,inhibition at 1 µM,[23],0%
same,inhibition at 1 µM,[24],-2.7%
same,inhibition at 1 µM,[25],-12.1%
same,inhibition at 1 µM,[26],5.8%
same,inhibition at 1 µM,[27],15.6%
same,inhibition at 1 µM,[28],13.6%
same,inhibition at 1 µM,[29],-4.4%
same,inhibition at 1 µM,[30],-4.6%
same,inhibition at 1 µM,[31],-7.9%
same,inhibition at 1 µM,[32],5%
same,inhibition at 1 µM,[33],0.1%
same,inhibition at 1 µM,[34],1.5%
"COc1c(NC(=O)c2ccc(C)c(-c3nnc4c(NCC(C)(C)C)nccn34)c2)cc(C(C)(C)C)cc1NS(C)(=O)=O [compound 7, reference compound]",IC50,"[35]; geometric mean, read-out: Activity in reference biochemical assay (IC50, μM) (95% CI) p38α",0.003 µM
same,IC50,"[35]; individual values, read-out: Biochemical activity (IC50, mM) (p38a)",0.008 µM and 0.005 µM and 0.001 µM
